The EC50 is the midpoint of the concentration-response curve.

Assay [1] concerns the target T1, human TREX2 (residues M44-A279) (Homo sapiens, UniProt Q9BQ50).
T1 construct: human TREX2 (residues M44-A279, expressed in E. coli); His-Tev (His tag with TEV protease site) (N); made in house; host or cells: E. coli
T1 sequence (Q9BQ50 44-279 isoform Q9BQ50-1): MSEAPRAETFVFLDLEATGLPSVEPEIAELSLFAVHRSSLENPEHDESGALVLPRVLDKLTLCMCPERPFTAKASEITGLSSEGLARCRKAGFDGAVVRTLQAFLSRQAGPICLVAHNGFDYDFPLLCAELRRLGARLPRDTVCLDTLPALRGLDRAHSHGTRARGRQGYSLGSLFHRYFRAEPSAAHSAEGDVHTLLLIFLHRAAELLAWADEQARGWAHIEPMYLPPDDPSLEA
Description: TREX2 Biochemical Assay (fluorescence assay, degradation of dsDNA substrate). The conditions noted are these: 2.5 nM TREX2, 60 nM dsDNA substrate, 25 minutes at room temperature; read-out: hTREX2 EC50. The method, boiled down:
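His-Tev-tagged human TREX2 (M44-A279, E. coli-expressed) at 2.5 nM final, with 60 nM TEX615/quencher-labelled dsDNA in pH 7.4 Tris buffer with MgCl2 and 1.0% DMSO, 10-point dose-response, 25 min at room temperature, then EDTA quench. Fluorescence read at 615 nm (ex 570 nm). IC50 from four-parameter fit against pre-quenched and no-inhibitor controls.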

In assay [2] the target is T2, full length human TREX1 (Homo sapiens, UniProt Q9NSU2).
T2 construct: N-terminally His-Tev tagged full length human TREX1; His-Tev (His tag with TEV protease site) (N); made in house; host or cells: E. coli
T2 sequence (Q9NSU2 1-314): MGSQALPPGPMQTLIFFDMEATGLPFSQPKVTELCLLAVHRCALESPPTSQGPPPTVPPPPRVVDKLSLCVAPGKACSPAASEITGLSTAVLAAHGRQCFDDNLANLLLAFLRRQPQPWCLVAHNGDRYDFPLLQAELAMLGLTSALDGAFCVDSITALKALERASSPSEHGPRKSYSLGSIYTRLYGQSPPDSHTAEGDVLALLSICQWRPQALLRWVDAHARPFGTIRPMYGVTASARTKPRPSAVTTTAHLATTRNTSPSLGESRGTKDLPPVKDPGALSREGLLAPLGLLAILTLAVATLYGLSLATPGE
Description: TREX1 Biochemical Assay (fluorescence assay, degradation of dsDNA substrate). Particulars: 150 pM TREX1, 60 nM dsDNA substrate, 25 minutes at room temperature; read-out: hTREX1 EC50. The method, boiled down: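 E. coli-expressed His-Tev-tagged full-length TREX1 (150 pM) with 60 nM quenched-fluorophore dsDNA in Tris pH 7.4, 150 mM NaCl, 100 mM MgCl2, 1% DMSO, 25 min room temperature, 10-point dose-response. EDTA stop; fluorescence 615 nm (ex 570 nm); IC50 from four-parameter fit against pre-quenched and no-inhibitor controls.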

As to `CCOc1cccc([C@@H](CC)N(Cc2ccc(C(=O)O)nc2)C(=O)c2cc(F)cc(F)c2)c1Cl` [Compound 228], the figures for the EC50 in assay [1] and in assay [2] were 1 to 10 µM and less than 0.1 µM, respectively.

On to `O=C(c1cc(F)ccc1F)N(Cc1cccnc1)Cc1ccc(Cl)cc1Cl` [Compound 122], for which the results for the 50% effective concentration (EC50) in assay [1] and in assay [2] were greater than 100 µM and greater than 10 µM, respectively.

For `O=C(c1cc(F)cc(F)c1)N(Cc1ccc(-c2ccn[nH]2)nc1)Cc1ccccc1Cl` [Compound 170], the EC50 is 10 to 100 µM in assay [1] and less than 0.1 µM in assay [2].

In the case of `O=C(c1ccc(F)c(Cl)c1)N(Cc1cccnc1)Cc1cc(Cl)cc(Cl)c1` [Compound 65], the concentration for a half-maximal effect (EC50) in assay [1] is greater than 100 µM; in assay [2], 1 to 10 µM.

Consider `COC(=O)C[C@@H](c1ccc(Cl)cc1Cl)N(Cc1cccnc1)C(=O)c1cc(F)cc(F)c1` [Compound 215], for which the EC50 is 10 to 100 µM in assay [1] and 1 to 10 µM in assay [2].

Consider `O=C(c1cnco1)N(Cc1cccnc1)Cc1ccc(Cl)cc1Cl` [Compound 117], for which the EC50 in assay [1] was greater than 100 µM; in assay [2], greater than 10 µM.

With `O=C(c1cc(F)cc(F)c1)N(Cc1ccc(-c2cc(C(F)(F)F)n[nH]2)nc1)Cc1ccccc1Cl` [Compound 223], the results for the EC50 in assay [1] and in assay [2] were greater than 100 µM and greater than 10 µM, respectively.

Turning to `NC(=O)c1ccc(CN(Cc2cccc(Cl)c2Cl)C(=O)c2cccc(F)c2)cn1` [Compound 149], the EC50 in assay [1] is greater than 100 µM; in assay [2], greater than 10 µM.

Regarding `O=C(O)c1ccc(CN(Cc2ccc3ncccc3c2Cl)C(=O)c2cc(F)cc(F)c2)cn1` [Compound 191], the EC50 in assay [1] was 1 to 10 µM; in assay [2], less than 0.1 µM.

As for `Cc1nocc1C(=O)N(Cc1cccnc1)Cc1ccc(Cl)cc1Cl` [Compound 140], the EC50 is greater than 100 µM in assay [1] and greater than 10 µM in assay [2].

With `O=C(O)c1ccc(CN(Cc2ccccc2Cl)C(=O)c2cc(F)cc(F)c2)cn1` [Compound 152], the EC50 in assay [1] was 1 to 10 µM; in assay [2] it was less than 0.1 µM.

`O=C(c1cccc(F)c1)N(Cc1cccnc1)[C@@H](CO)c1ccc(Cl)cc1Cl` (single isomer, unassigned) [Compound 161]: the EC50 in assay [1] was 10 to 100 µM; in assay [2], greater than 10 µM.

In the case of `O=C(c1cccc(F)c1)N(Cc1ccncc1)Cc1ccc(Cl)cc1Cl` [Compound 97], the EC50 is greater than 100 µM in assay [1] and greater than 10 µM in assay [2].

For `COCC(=O)N(Cc1cccnc1)Cc1ccc(Cl)cc1Cl` [Compound 92], the half-maximal effective concentration (EC50) in assay [1] was greater than 100 µM; in assay [2], greater than 10 µM.

As for `O=C(O)c1ccc(CN(Cc2ccccc2OC(F)(F)F)C(=O)c2cc(F)cc(F)c2)cn1` [Compound 199], the values for the EC50 in assay [1] and in assay [2] were 10 to 100 µM and 1 to 10 µM, respectively.

Turning to `C[C@H](c1cccc(Cl)c1Cl)N(Cc1ccc(C(=O)O)nc1)C(=O)c1cc(F)cc(F)c1` [Compound 173], the values for the EC50 in assay [1] and in assay [2] were 10 to 100 µM and 0.1 to 1 µM, respectively.

As for `O=C(O)c1ncc(CN(Cc2cccc(Cl)c2Cl)C(=O)c2cc(F)cc(F)c2)cc1Cl` [Compound 204], the EC50 lay in the range of 1 to 10 µM in assay [1] and 0.1 to 1 µM in assay [2].

On to `O=C(CN1CCCC1)N(Cc1cccnc1)Cc1ccc(Cl)cc1Cl` [Compound 91], for which the EC50 in assay [1] was greater than 100 µM; in assay [2], greater than 10 µM.

For the compound `O=C(c1ccc(Oc2ccc(Br)cc2)cc1)N(Cc1cccnc1)Cc1cc(Cl)cc(Cl)c1` [Compound 77], the EC50 is greater than 100 µM in assay [1] and greater than 10 µM in assay [2].

For the compound `O=C(c1cc(F)cc(F)c1)N(Cc1cccnc1)Cc1ccc(Cl)cc1Cl` [Compound 121], the figures for the EC50 in assay [1] and in assay [2] were 10 to 100 µM and 0.1 to 1 µM, respectively.

For `O=C(c1cc(F)cc(F)c1)N(Cc1ccc(CCO)nc1)Cc1ccc(Cl)cc1Cl` [Compound 218], the EC50 in assay [1] was 10 to 100 µM; in assay [2] it was 0.1 to 1 µM.

Turning to `O=C(c1ccon1)N(Cc1cccnc1)Cc1ccc(Cl)cc1Cl` [Compound 118], the EC50 in assay [1] was greater than 100 µM; in assay [2] it was greater than 10 µM.

With `O=C(c1cccc(F)c1)N(Cc1cnc2ccccc2c1)Cc1ccc(Cl)cc1Cl` [Compound 109], the EC50 in assay [1] is greater than 100 µM; in assay [2] it was greater than 10 µM.

Regarding `O=C(c1cccc(F)c1)N(Cc1cccnc1)Cc1ccc(Cl)cc1Cl` [Compound 11], the EC50 in assay [1] is 10 to 100 µM; in assay [2] it was 1 to 10 µM.

For `O=C(O)c1ccc(CN(Cc2cncc(Cl)c2Cl)C(=O)c2cc(F)cc(F)c2)cn1` [Compound 202], the EC50 in assay [1] was 1 to 10 µM; in assay [2], less than 0.1 µM.

On to `CC[C@H](c1cccc(Cl)c1Cl)N(Cc1cnc(C(=O)O)c(N)c1)C(=O)c1cc(F)cc(F)c1` [Compound 239], for which the EC50 was 1 to 10 µM in assay [1] and less than 0.1 µM in assay [2].

As to `O=C(c1ccc(F)cn1)N(Cc1cccnc1)Cc1ccc(Cl)cc1Cl` [Compound 99], the concentration for a half-maximal effect (EC50) in assay [1] is greater than 100 µM; in assay [2], greater than 10 µM.

In the case of `O=C(O)c1ncc(CN(Cc2cccc(Cl)c2Cl)C(=O)c2cc(F)cc(F)c2)cc1O` [Compound 257], the EC50 is 10 to 100 µM in assay [1] and less than 0.1 µM in assay [2].

For the compound `C[C@@H](c1ccc(Cl)cc1Cl)N(Cc1cccnc1)C(=O)c1cccc(F)c1` [Compound 156], the EC50 was greater than 100 µM in assay [1] and greater than 10 µM in assay [2].

Regarding `COC(=O)c1ccc(CN(Cc2ccc(Cl)cc2Cl)C(=O)c2cccc(F)c2)cn1` [Compound 141, methyl 5-({N-[(2,4-dichlorophenyl)methyl]-1-(3-fluorophenyl)formamido}methyl)pyridine-2-carboxylate], the values for the EC50 in assay [1] and in assay [2] were greater than 100 µM and greater than 10 µM, respectively.

`COC(=O)CC[C@@H](c1ccccc1Cl)N(Cc1cccnc1)C(=O)c1cc(F)cc(F)c1` [Compound 242]: the EC50 in assay [1] was 10 to 100 µM; in assay [2] it was less than 0.1 µM.

With `O=C(c1ccc(Br)cc1Cl)N(Cc1cccnc1)Cc1cc(Cl)cc(Cl)c1` [Compound 70], the EC50 was greater than 100 µM in assay [1] and greater than 10 µM in assay [2].

Turning to `CC(C)Oc1ccc(C(=O)N(Cc2cccnc2)Cc2ccc(Cl)cc2Cl)cc1` [Compound 90], the EC50 in assay [1] was greater than 100 µM; in assay [2] it was greater than 10 µM.

`O=C(O)c1ccc(CN(Cc2cc(Cl)ccc2Cl)C(=O)c2cc(F)cc(F)c2)cn1` [Compound 187]: the EC50 is 1 to 10 µM in assay [1] and less than 0.1 µM in assay [2].

As for `O=C(c1cnon1)N(Cc1cccnc1)Cc1ccc(Cl)cc1Cl` [Compound 114], the results for the EC50 in assay [1] and in assay [2] were greater than 100 µM and greater than 10 µM, respectively.

For `O=C(c1cc(Br)c(O)c(Br)c1)N(Cc1cccnc1)Cc1cc(Cl)cc(Cl)c1` [Compound 53], the EC50 in assay [1] is 10 to 100 µM; in assay [2], greater than 10 µM.

As for `O=C(c1cccc(F)c1)N(Cc1cccnc1)Cc1cc(Cl)cc(Cl)c1` [Compound 23], the EC50 was greater than 100 µM in assay [1] and greater than 10 µM in assay [2].

Regarding `COc1cc(C(=O)N(Cc2cccnc2)Cc2ccc(Cl)cc2Cl)cc(Br)c1O` [Compound 41], the values for the EC50 in assay [1] and in assay [2] were greater than 100 µM and greater than 10 µM, respectively.

Take `O=C(c1cccc(Oc2ccccc2)c1)N(Cc1cccnc1)Cc1cc(Cl)cc(Cl)c1` [Compound 66]: the EC50 is greater than 100 µM in assay [1] and greater than 10 µM in assay [2].

`O=C1NCc2cc(CN(Cc3ccccc3Cl)C(=O)c3cc(F)cc(F)c3)cnc21` [Compound 182]: the EC50 is 10 to 100 µM in assay [1] and 1 to 10 µM in assay [2].

On to `O=C(O)CC[C@@H](c1ccccc1Cl)N(Cc1cccnc1)C(=O)c1cc(F)cc(F)c1` [Compound 244], for which the EC50 in assay [1] was 10 to 100 µM; in assay [2] it was less than 0.1 µM.

Consider `CC[C@H](c1ccc(Cl)cc1Cl)N(Cc1cccnc1)C(=O)c1cccc(F)c1` (single isomer, unassigned) [Compound 157], for which the values for the EC50 in assay [1] and in assay [2] were 10 to 100 µM and 0.1 to 1 µM, respectively.

For `COc1ccccc1CN(Cc1cccnc1)C(=O)c1cccc(F)c1` [Compound 125], the EC50 was greater than 100 µM in assay [1] and greater than 10 µM in assay [2].

With `O=C(c1cc(F)cc(F)c1)N(Cc1cccnc1)[C@@H](c1cn[nH]c1)c1ccc(Cl)cc1Cl` [Compound 222], the EC50 in assay [1] lay within 10 to 100 µM; in assay [2] it was 1 to 10 µM.

As for `COc1ccnc(CN(Cc2ccc(C(=O)O)nc2)C(=O)c2cc(F)cc(F)c2)c1Cl` [Compound 189], the EC50 lay within 10 to 100 µM in assay [1] and 0.1 to 1 µM in assay [2].

As for `O=C(/C=C/c1ccco1)N(Cc1cccnc1)Cc1ccc(Cl)cc1Cl` [Compound 79], the EC50 in assay [1] is greater than 100 µM; in assay [2] it was greater than 10 µM.

The record behind these values is patent US20230233541A1, “SUBSTITUTED BENZAMIDES AS MODULATORS OF TREX1” (Constellation Pharmaceuticals, Inc., priority 2020, published 2023).
